Reference: publication PMC6135860 (Neuropsychopharmacology, 2018)
Like-named read-outs stand apart in the source and are kept apart here.

Columns and labels:
humanized PDE4D mice [1] = experiment: Novel object recognition, 24 h inter-trial interval; assay type: in vivo, mouse
Protocol: (§1) The novel object recognition test was performed as described elsewhere [32, 33]. Briefly, the task procedure consists of three phases: habituation phase on day 1 for 10 min, training (T1) phase on day 2 for 5 min, and testing (T2) phase on day 3 for 5 min. The duration each animal spent exploring the objects was recorded. Time spent exploring the identical objects in T1 was recorded as a1 and a2; time spent exploring the familiar and the novel objects in T2 was recorded as “a” and “b”, respectively. The following variables were calculated: e1 = a1 + a2, e2 = a + b, the relative discrimination index d2 = (b–a)/e2.
Novel object recognition. Mice were handled for 3-5 min for 5 days in a row. The novel object recognition test was performed in a Plexiglas open field box (L30 cm, W50 cm, H40 cm) as described elsewhere^64,65. Briefly, the task procedure consists of three phases: habituation, training (T1), and testing (T2). In the habituation phase (day 1), each animal is allowed to freely explore the apparatus for 10 min; then the animal is returned to its home cage. During the training phase (day 2), a single animal is placed in the center of the open field containing two identical objects located on the diagonal of the field, and allowed to explore for 5 min. After a retention interval after T1 of 24 h (long-term recall) or 1 h (scopolamine-impairment model), the animal was subjected to the T2 testing phase for 5 min, during which one familiar object and one novel object were presented. The arena and objects were thoroughly wiped with 70% ethanol after each trial to avoid the presence of any olfactory cues. The animals were considered to be exploring the object when directing their nose to the object at a distance of no more than 2 cm and/or touching or sniffing the object. The duration each animal spent exploring the objects was recorded. Time spent exploring the identical objects in T1 was recorded as a1 and a2; time spent exploring the familiar and the novel objects in T2 was recorded as ‘a’ and ‘b’, respectively. The following variables were calculated: e1 = a1 + a2, e2 = a + b, the relative discrimination index d2 = (b – a)/e2.

humanized PDE4D mice [2] = experiment: Y-maze spontaneous alternation test; assay type: in vivo, mouse
Protocol: (§2) The test consists of a single 5 min trial, in which the mouse was allowed to explore all three arms of the Y-maze [31]. Spontaneous alternation (%) was defined as consecutive entries in three different arms, divided by the number of possible alternations (total arm entries minus 2).
(§3) Y-maze spontaneous alternation test. The Y-maze apparatus made of matt blue Plexiglas had three identical arms (L 40 cm, W 5 cm, H 15 cm) placed at 120° from each other. The test consisted of a single 5 min trial, in which the mouse was allowed to explore all three arms of the Y-maze. The start arm was varied between animals to avoid placement bias. Spontaneous Alternation (%) was defined as consecutive entries in 3 different arms, divided by the number of possible alternations (total arm entries minus 2). Mice with less than 8 arm entries during the 5-min trial were excluded from the analysis.

[3] = biological target: PDE4 binding sites in wild-type mouse brain membranes; experiment: [3H]-rolipram radioligand binding to brain membranes; conditions: for Ki: wild-type
Protocol: (§4) Mice were killed by decapitation, and the brains were immediately dissected on ice and homogenized in binding buffer using a Polytron homogenizer (Brinkman Instruments, Westbury, NY). The membrane fraction of the homogenate was obtained by centrifugation at 15,000 × g for 15 min, and resuspension of the pellet in the binding buffer.
(§5) Mice were killed by decapitation, and the brains were immediately dissected on ice and homogenized in binding buffer (50 mM Tris-HCl, 5 mM MgCl2, pH 7.5) using a Polytron homogenizer (Brinkman Instruments, Westbury, NY). The membrane fraction of the homogenate was obtained by centrifugation at 15,000 g for 15 min, and resuspension of the pellet in the binding buffer^29.
(§6) At the end of the incubation, reactions were stopped by adding 5 ml of the ice-cold binding buffer and rapid vacuum filtration through glass fiber filters that had been soaked in 0.3% polyethyleneimine. The filters were then washed twice with 5 ml of the ice-cold binding buffer, and discs of filter paper were collected for measurement of radioactivity by liquid scintillation counting.

humanized PDE4D mice [4] = conditions: 1 mg/kg IP, hPDE4D mice
wild-type mice [5] = experiment: Novel object recognition, 24 h inter-trial interval; assay type: in vivo, mouse
Protocol: as §1
Novel object recognition. Mice were handled for 3-5 min for 5 days in a row. The novel object recognition test was performed in a Plexiglas open field box (L30 cm, W50 cm, H40 cm) as described elsewhere^64,65. Briefly, the task procedure consists of three phases: habituation, training (T1), and testing (T2). […] The duration each animal spent exploring the objects was recorded. Time spent exploring the identical objects in T1 was recorded as a1 and a2; time spent exploring the familiar and the novel objects in T2 was recorded as ‘a’ and ‘b’, respectively. The following variables were calculated: e1 = a1 + a2, e2 = a + b, the relative discrimination index d2 = (b – a)/e2.

wild-type mice [6] = experiment: Ketamine/xylazine anesthesia duration (surrogate of emesis); conditions: 1 mg/kg IP
[7] = biological target: PDE4 binding sites in humanized PDE4D mouse brain membranes; experiment: [3H]-rolipram radioligand binding to brain membranes; conditions: for Ki: hPDE4D
Protocol: as §4, §5, §6

wild-type mice [8] = experiment: Y-maze spontaneous alternation test; assay type: in vivo, mouse
Protocol: as §2, §3

humanized PDE4D mice [9] = experiment: Scopolamine-induced memory impairment in novel object recognition, 1 h inter-trial interval; assay type: in vivo, mouse; conditions: scopolamine 0.1 mg/kg IP 30 min prior to training
Protocol: The novel object recognition test was performed as described elsewhere. […] The duration each animal spent exploring the objects was recorded. Time spent exploring the identical objects in T1 was recorded as a1 and a2; time spent exploring the familiar and the novel objects in T2 was recorded as “a” and “b”, respectively. The following variables were calculated: e1 = a1 + a2, e2 = a + b, the relative discrimination index d2 = (b–a)/e2.
For the scopolamine-induced memory impairment models, a single dose of scopolamine (0.1 mg/kg, IP) was administered 30 min before the training session of the NOR. Animals treated with H-89 or vehicle were implanted with 26-gauge guide cannula unilaterally (AP −0.2 mm from Bregma, ML +1 mm from the midline, DV−2mm from skull surface) and rested for a week before any tests.
Novel object recognition. Mice were handled for 3-5 min for 5 days in a row. The novel object recognition test was performed in a Plexiglas open field box (L30 cm, W50 cm, H40 cm) as described elsewhere^64,65. Briefly, the task procedure consists of three phases: habituation, training (T1), and testing (T2). In the habituation phase (day 1), each animal is allowed to freely explore the apparatus for 10 min; then the animal is returned to its home cage. During the training phase (day 2), a single animal is placed in the center of the open field containing two identical objects located on the diagonal of the field, and allowed to explore for 5 min. After a retention interval after T1 of 24 h (long-term recall) or 1 h (scopolamine-impairment model), the animal was subjected to the T2 testing phase for 5 min, during which one familiar object and one novel object were presented. […] The duration each animal spent exploring the objects was recorded. Time spent exploring the identical objects in T1 was recorded as a1 and a2; time spent exploring the familiar and the novel objects in T2 was recorded as ‘a’ and ‘b’, respectively. The following variables were calculated: e1 = a1 + a2, e2 = a + b, the relative discrimination index d2 = (b – a)/e2.

[10] = H-89 1 µg i.c.v. followed by BPN14770 0.03 mg/kg PO, hPDE4D mice
[11] = inhibition of 2 nM [3H]-rolipram binding, read-out: One-site Ki
[12] = inhibition of [3H]-rolipram binding, read-out: Two-site Ki1
[13] = inhibition of [3H]-rolipram binding, read-out: Two-site Ki2

O=S(=O)(NCCNC/C=C/c1ccc(Br)cc1)c1cccc2cnccc12 [H-89, reference compound]
effect on memory benefit of BPN14770 in NOR (humanized PDE4D mice [1]; [10]): significantly antagonized the effect of BPN14770 on memory | effect on memory benefit of BPN14770 in Y-maze (humanized PDE4D mice [2]; [10]): significantly antagonized the effect of BPN14770 on memory

COc1ccc(C2CNC(=O)C2)cc1OC1CCCC1 (centres unmarked) [Rolipram]
MED in NOR (humanized PDE4D mice [1]; humanized PDE4D mice, 24 h inter-trial interval): 0.1 mg/kg IP | Ki [3, 11]: 1.99 ± 0.11 nM | Ki [3, 12]: 0.75 ± 0.33 nM | Ki [3, 13]: 34.1 ± 26.8 nM | effect on ketamine/xylazine anesthesia duration (humanized PDE4D mice [4]): significantly reduced the anesthesia duration | MED in Y-maze (humanized PDE4D mice [2]; humanized PDE4D mice): 0.1 mg/kg IP | MED in NOR (wild-type mice [5]): 0.1 mg/kg IP | effect on ketamine/xylazine anesthesia duration (wild-type mice [6]): significantly reduced the anesthesia duration | Ki [7, 11]: 1.66 ± 0.07 nM | Ki [7, 12]: 0.39 ± 0.07 nM | Ki [7, 13]: 6.1 ± 0.79 nM | MED in Y-maze (wild-type mice [8]): 0.1 mg/kg IP

COc1ccc(C2CNC(=O)C2)cc1OC1CCCC1 (centres unmarked) [[^3H]-rolipram]
Kd ([3]; wild-type mouse brain membranes, read-out: Kd of [3H]-rolipram saturation binding): 3.84 nM | Kd ([7]; humanized PDE4D mouse brain membranes, read-out: Kd of [3H]-rolipram saturation binding): 3.72 nM

CN1[C@@H]2C[C@@H](OC(=O)[C@H](CO)c3ccccc3)C[C@H]1[C@@H]1O[C@@H]12 [scopolamine, reference compound]
effect on short-term memory in NOR (humanized PDE4D mice [9]): abolished short-term memory formation
